# Assay results as given in patent publication US20170042929A9, “Methods of Treating Neurological Diseases” (priority 2012, published 2017).
# Entries after “also recorded” stand apart in the source; their conditions may differ.
# Legend:
# [1] = tested on: hippocampal area CA1 of HET (SCN1A mSMEI) tissue; assay: Evoked fEPSP extracellular recordings in hippocampal slices, Schaeffer collateral stimulation (single pulse and 40 Hz trains); assay type: cell-based, mouse; settings: for population spike evoked by very low stimulation intensity: HET CA1; for fEPSP amplitude / synaptic excitability in HET tissue: HET hippocampus, ten pulse 40 Hz stimulation
# Protocol: (§1) Mice (P16-22) were anesthetized with isofluorane, decapitated, and the brains immediately removed. Transverse hippocampal sections (350 μm thickness) were cut in cold dissection solution (in mM: 2.6 KCl, 1.23 NaH2PO4, 24 NaHCO3, 0.1 CaCl2, 2 MgCl2, 205 sucrose, and 10 glucose) using a vibratome and were incubated for half an hour in normal artificial cerebrospinal fluid (ACSF; pH 7.3, 30° C.) containing (in mM) 130 NaCl, 1.2 MgSO4, 3.5 KCl, 1.2 CaCl2, 10 glucose, 2.5 NaH2PO4, 24 NaHCO3 aerated with 95% O2-5% CO2. After the incubation, slices were stained with Di-4ANNEPS (final dye concentration is 0.05 mg/ml) and left to recover for an additional hour at 30° C. (23). The slices were transferred to a submersion recording chamber (Warner Instr.) and continuously perfused (2 ml/min, at 30° C.) with the oxygenated ACSF.
# (§2) To characterize excitatory neural circuit activity, stimulating electrodes (concentric bipolar metal electrodes, 200 μm in diameter (FHC)) were placed on the Shaffer collaterals. fEPSP recordings were performed in hippocampal slices concurrently with the VSDI (FIGS. 1A-1E). Extracellular recording electrodes ([…], 0.9% saline) were placed in the CA1 radiatum layer. To monitor Di-4ANNEPS signals, the slices were illuminated either with Halogen (150 W; excitation 522-550 nm; emission—580 nm; dichroic—565 nm).
# Input-output (I-O) characteristics of fEPSPs were calculated using the same intensities of stimulation and incrementally (0.05 mA) raising them until the maximal responses or population spikes were obtained. 1-0 calculations were performed in stained and unstained slices to rule out a possible modulation of Di-4ANEPPS on GABA receptors (24). The responses from stained and unstained slices were not statistically different and were pooled together for the final analysis.
# (§3) To elicit short-term synaptic plasticity, Schaeffer collaterals were stimulated at 40 Hz frequency using 10 pulse (0.2 msec) trains. 40 Hz falls within the gamma frequency range and stimulation was repeated every 15 seconds with stimulus amplitude was set at the half of maximal fEPSP amplitude. fEPSP and VSDI optical data trials were synchronized.
# To modulate hippocampal hyperexcitability A1R agonist N6-cyclopentyladenosine (CPA) was used. N6-cyclopentyladenosine dissolved in DMSO was added to the bath ACSF solution. N6-cyclopentyladenosine took effect within 2 minutes of its application. 10 and 1 μM and 500, 100, 50, and 10 nM concentrations of CPA were tested. Since N6-cyclopentyladenosine acts through G-protein linked mechanisms, the washout of N6-cyclopentyladenosine was not possible in the current experiments. […] A1R […] DPCPX concentration was 200 nM. All drugs and dye were obtained from Sigma-Aldrich.
# [2] = tested on: hippocampal CA1 circuit of HET (SCN1A mSMEI) tissue; assay: Voltage-sensitive dye imaging (VSDI) of evoked neural activity propagation, FWHM; assay type: cell-based, mouse; settings: for abnormally wide circuit excitation, neural activity map (dF/Fmax) / spatial extent of neural signal propagation: 50 nM CPA; for abnormally wide circuit excitation, neural activity map (dF/Fmax): HET animal P19; for spatial extent of neural signal propagation: HET tissue
# Protocol: as §1
# A combination of in vitro electrophysiology (extracellular field potential recording and whole-cell patch clamp recordings) and fast voltage-sensitive dye imaging (VSDI) was used. All electrical recordings were performed using MCC 700 amplifiers (Axon Instruments). Electrical data was acquired at 4 KHz, digitized at 10 KHz using a Digidata DAC board and pClamp software. Optical data were recorded at 250 Hz with MiCam 02 (192×126 pixels, SciMedia USA).
# as §2, §3
# Optical and electrical data were analyzed using Brain Vision and pClamp softwares. To increase signal to noise ratio, data analysis in individual slices and during pharmacological manipulations was performed on the averages of fifteen files (electrical and optical). Standard electrophysiological analysis techniques were used to analyze fEPSP, EPSC, and IPSC characteristics. For optical analysis, 1060 msec of data were fitted with an approximately Gaussian curve (25) and full width at half maximal (FWHM) values over the distance of 950 micrometers from the stimulating electrode toward subicullum were calculated using BrainVision (SciMedia). FWHM here quantifies distance of neuronal signal propagation (or decay). FWHM calculations along the orthodromic neural activity propagation trajectory included 15 frames before and 194 frames after the 40 Hz train stimulation, and was spanning over the evoked signal as shown in FIGS. 4A-4D. All results are reported as grouped averages with standard error of the mean. Results from WT and HET, or treated versus untreated groups were compared using unpaired and paired t-tests, respectfully. A p<0.05 was regarded as statistically significant value.
# [3] = tested on: isolated mouse hippocampus; assay: Febrile seizure-like events (FSLE) in hyperthermia, extracellular recording in isolated hippocampus; assay type: cell-based; settings: CPA added immediately after the first FSLE, P18 isolated hippocampus
# Protocol: FIG. 9A: unfiltered extracellular recording traces (DC mode) of the typical repeated FSLEs in P18 isolated mouse hippocampus. […] Immediately after that CPA was added.
# Febrile seizure-like events (FSLE) emerge and terminate as sub-threshold bursts under conditions of hyperthermia at a temperature of about 39° C. in (FIGS. 6A-6C) while spontaneous inhibitory postsynaptic currents (IPSCs) evident at 32° C. (FIG. 6D) gradually diminish as the temperature increases (FIG. 6E). In hippocampal slices FSLEs emerged on the average at 38.5° C. in tissue from HET mice and at 40.5° C. in tissue from WT mice (FIGS. 7A-7B) where the FSLE durations was almost twice as long in HET tissue (FIG. 7C).
# [4] = tested on: SMEI mice (SCN1A HET); assay: Acute CPA treatment, hyperthermia-induced seizures in vivo; set-up: species or system mouse
# Protocol: (§4) The model of SMEI used in these studies is caused by a knock-in nonsense substitution (CgG to TgA in exon 21) made within a loop between segments 5 and 6. Transgenic mice were provided by Drs. K. Yamakawa and I. Ogiwara (RIKEN, Japan (14)). All of the experiments on the mice (C57BL/6/129) involved in this project were performed in accordance with animal protocols approved by the Institutional Animal Care and Use Committee of the University of Houston. Heterozygous (HET) and wild-type (WT) mice were used.
# [5] = tested on: SMEI mice (SCN1A HET); assay: Chronic CPA treatment (P11-P20), hyperthermia-induced seizures in vivo; set-up: species or system mouse
# Protocol: as §4
# The A1R agonist CPA has an acute effect on the control of hyperexcitable neural network, hyperthermia-induced seizure in vitro and in vivo. To investigate if the chronic treatment of mSMEI with CPA can have long-term effects on the rewiring of the neural circuit and FS threshold activity, CPA was injected into the SMEI mice twice a day for continuous 10 days during the critical activity-dependent period of development (P11-P20), and the effects were determined 24 hours and 10 days after the last injection.
# [6] = tested on: CA1 pyramidal cells of HET SMEI mice; assay: sEPSC and sIPSC whole-cell recordings after repeated CPA treatment; assay type: in vivo, mouse; settings: repeated CPA treatment P11-P20, HET+CPA vs HET+vehicle
# Protocol: For electrical whole-cell voltage-clamp recordings, borosilicate glass micropipettes (4-7 MΩ) were used containing (in mM): 116 Cesium gluconate, 6 KCl, 0.5 EGTA, 20 HEPES, 10 phosphocreatine, 0.3 NaGTP, 2 NaCl, 4 MgATP, and 0.3% Neurobiotin (pH 7.25, 295 mOsm) and 5 mM QX-314 (fast voltage-gated conductance blocker). Spontaneous inhibitory postsynaptic currents (IPSCs) and EPSCs were recorded in CA1 pyramidal cells. sIPSCs were recorded at −80 mV in the presence of APV (100 μM) and CNQX (40 μM). sEPSCs were recorded at −70 mV in the presence of inhibitory synaptic transmission blocker picrotoxin (50 μM). Amplitude and frequency of sEPSCs and sIPSCs were measured and compared between WT and HET. For IPSC calculations, activity was studied in three 20 second segments (twenty seconds apart) for each cell (N=8 HET, 6WT). Since EPSCs have lower frequency, two minute long segments were used for their analysis (N=6). Cumulative distribution of the amplitudes and inter-event interval (frequency) were plotted in Prism software. t-test analysis was used to compare IPSCs and EPSCs in HET and WT tissue. All recordings were performed at 32° C. temperature. […]
# [7] = tested on: SMEI seizures; settings: previously tested; cited from earlier work
# [8] = 50 nM CPA, listed as N6-cyclopentyladenosine
smiles,measurement,setting,value
"OC[C@H]1O[C@@H](n2cnc3c(NC4CCCC4)ncnc32)[C@H](O)[C@@H]1O [CPA, N6-cyclopentyladenosine]",population spike evoked by very low stimulation intensity,[1]; 50 nM CPA,reduced this spike into a field EPSP response
same,population spike evoked by very low stimulation intensity,[1]; [8],reduced this spike into a fEPSP response; also recorded: effectively reduced this exaggerated response into fEPSP
same,fEPSP amplitude / synaptic excitability in HET tissue,[1]; 50 nM CPA,significantly reduced fEPSP; also recorded: significantly reduced hippocampal circuit hyperexcitability without blocking excitatory synaptic transmission
same,fEPSP amplitude / synaptic excitability in HET tissue,[1]; [8],"significantly reduced fEPSP trains; also recorded: significantly reducing synaptic excitability in HET tissues, without blocking synaptic transmission"
same,"short-term plasticity (STP), fEPSP amplitude ratios pulses #2-10 to #1","[1]; 50 nM CPA, HET vs HET+CPA, 40 Hz train",effected the short-term plasticity; also recorded: all statistically different
same,fEPSPs,[1]; 1 μM N6-cyclopentyladenosine in bath ACSF,completely eliminated fEPSPs
same,fEPSPs,[1]; 10 μM N6-cyclopentyladenosine in bath ACSF,completely eliminated fEPSPs
same,time until N6-cyclopentyladenosine took effect after its application,[1]; bath application in ACSF,≤ 2 min
same,"abnormally wide circuit excitation, neural activity map (dF/Fmax)",[2],reduced significantly; also recorded: reduced the abnormally wide circuit excitation
same,"abnormally wide circuit excitation, neural activity map (dF/Fmax)",[2]; listed as N6-cyclopentyladenosine,abnormally wide CA1 circuit activation was confined; also recorded: reduced the abnormally wide circuit excitation
same,spatial extent of neural signal propagation,[2]; 40 Hz train,significantly reduced the spatial extent of neural signal propagation
same,spatial extent of neural signal propagation,"[2]; 40 Hz train, listed as N6-cyclopentyladenosine",significantly reduced the spatial extent of neural signal propagation; also recorded: reduced propagation of the evoked signal
same,"FWHM, spread of the evoked activity","[2]; HET slices + 50 nM CPA, 40 Hz train, untreated HET 591±106 μm, N=6 slices",491±106 μm
same,epileptogenic activity (repeated FSLEs) in hyperthermia,[3],blocked epileptogenic activity in hyperthermia; also recorded: no repetitive FSLEs formed
same,seizure duration,"[4]; acute CPA 15 minutes before hyperthermia, vehicle 5.91±1.17 min",2.26 ± 0.43 min
same,seizure latency,"[4]; acute CPA 15 minutes before hyperthermia, vehicle 8.19±0.95 min",11.68 ± 0.70 min
same,seizure duration,"[4]; acute CPA i.p. 15 minutes prior, HET+saline 5.91±1.17 (figure legend)",2.26±0.43
same,seizure latency,"[4]; acute CPA i.p. 15 minutes prior, HET+saline 8.19±0.95 (figure legend)",11.68±0.70
same,seizure incidence,"[5]; chronic CPA twice a day P11-P20, 24 hours after the last treatment, vehicle 83.3%",53%
same,seizure incidence,"[5]; chronic CPA twice a day P11-P20, 10 days after the last treatment, vehicle 75%",43%
same,seizure duration,"[5]; chronic CPA, 24 hours after the last treatment, vehicle 3.980±0.6651",1.424±0.6904
same,seizure latency,"[5]; chronic CPA, 24 hours after the last treatment, vehicle 8.080±1.772",11.25±1.140
same,sIPSC amplitude,[6],does not cause significant change in sIPSCs; also recorded: no significant difference
same,sIPSC interval,[6],does not cause significant change in sIPSCs; also recorded: no significant difference
Nc1nnc(-c2cccc(Cl)c2Cl)c(N)n1 [lamotrigine],efficacy against SMEI seizures,[7],none of these agents worked reliably
CCCn1c(=O)c2[nH]c(C3CCCC3)nc2n(CCC)c1=O [DPCPX],effect of DPCPX on the CPA-induced decrease of fEPSP amplitude,[1]; DPCPX 200 nM added to ACSF with 50 nM CPA,prevented N6-cyclopentyladenosine to decrease fEPSP amplitude; also recorded: N6-cyclopentyladenosine was ineffective at reducing fEPSP
NC(=O)N1c2ccccc2C=Cc2ccccc21 [carbamazepine],efficacy against SMEI seizures,[7],none of these agents worked reliably
